Measurements reported in ChEMBL document CHEMBL1629682, “Nitazoxanide inhibits biofilm formation by Staphylococcus epidermidis by blocking accumulation on surfaces” (Antimicrob Agents Chemother, 2010).
Activity calls are given as the source filed them.

Legend:
[1] = Aqueous solubility of the compound; type: physicochemical
[2] = system: Staphylococcus epidermidis; assay: Antimicrobial activity against Staphylococcus epidermidis 9142 assessed as growth inhibition at 16 ug/ml by microdilution method; type: functional, organism-based
[3] = system: Staphylococcus epidermidis; assay: Antimicrobial activity against biofilm-positive Staphylococcus epidermidis clinical isolate ICS1 assessed as inhibition of biofilm formation after 16 hrs by crystal violet staining; type: functional, organism-based
[4] = system: Staphylococcus epidermidis; assay: Antimicrobial activity against biofilm-positive Staphylococcus epidermidis clinical isolate ICS5 by microdilution method; type: functional, organism-based
[5] = system: Staphylococcus epidermidis; assay: Antimicrobial activity against Staphylococcus epidermidis 9142 expressing surface protein Aap up to 10 hrs by microdilution method in presence of 10 uM Zn ions; type: functional, organism-based
[6] = system: Staphylococcus epidermidis; assay: Antimicrobial activity against Staphylococcus epidermidis 9142 under microaeration condition at 10 ug/ml by microdilution method; type: functional, organism-based
[7] = system: Staphylococcus haemolyticus; assay: Antimicrobial activity against Staphylococcus haemolyticus S33208 assessed as growth inhibition at 8 ug/ml by microdilution method; type: functional, organism-based
[8] = system: Staphylococcus epidermidis; assay: Antimicrobial activity against Staphylococcus epidermidis 5179 under microaeration condition at 10 ug/ml by microdilution method; type: functional, organism-based
[9] = system: Staphylococcus epidermidis; assay: Antimicrobial activity against Staphylococcus epidermidis 9142 at 25 ug/ml by microdilution method; type: functional, organism-based
[10] = system: Staphylococcus epidermidis; assay: Antimicrobial activity against Staphylococcus epidermidis 9142 assessed as inhibition of biofilm formation after 24 hrs by crystal violet staining; type: functional, organism-based
[11] = system: Staphylococcus epidermidis; assay: Antimicrobial activity against Staphylococcus epidermidis CAV1005 by microdilution method; type: functional
[12] = system: Staphylococcus epidermidis; assay: Antimicrobial activity against Staphylococcus epidermidis CAV1005 under aerobic condition by microdilution method; type: functional, organism-based
[13] = system: Staphylococcus epidermidis; assay: Antimicrobial activity against Staphylococcus epidermidis CAV1005 assessed as inhibition of biofilm formation after 24 hrs by microdilution method; type: functional; settings: CAV1005, 24 h
[14] = system: Staphylococcus epidermidis; assay: Antimicrobial activity against Staphylococcus epidermidis 9142 assessed as inhibition of bacterial primary attachment to plastics during 3 hrs at 15 ug/ml by microscopic analysis; type: functional, organism-based
[15] = system: Staphylococcus epidermidis; assay: Antimicrobial activity against Staphylococcus epidermidis 5179 by microdilution method; type: functional
[16] = system: Staphylococcus haemolyticus; assay: Antimicrobial activity against Staphylococcus haemolyticus S33208 assessed as inhibition of biofilm formation after 24 hrs by crystal violet staining; type: functional, organism-based
[17] = system: Staphylococcus epidermidis; assay: Antimicrobial activity against Staphylococcus epidermidis 9142 expressing surface protein Aap by microdilution method in presence of 10 uM Zn ions; type: functional
[18] = system: Staphylococcus haemolyticus; assay: Antimicrobial activity against Staphylococcus haemolyticus S33208 assessed as growth inhibition at 16 ug/ml by microdilution method; type: functional, organism-based
[19] = system: Staphylococcus epidermidis; assay: (§1) Antimicrobial activity against Staphylococcus epidermidis clinical isolate 5179-R1 derived from PNAG negative, icaA::IS257 mutant 5179 strain produces a proteinaceous biofilm dependent on a truncated 140-kDa isoform of Aap by microdilution method; type: functional, organism-based
[20] = system: Staphylococcus epidermidis; assay: Antimicrobial activity against Staphylococcus epidermidis CAV1005 under microaeration condition at 10 ug/ml by microdilution method; type: functional, organism-based
[21] = system: Staphylococcus epidermidis; assay: Antimicrobial activity against Staphylococcus epidermidis CAV1005 at 25 ug/ml under aerobic condition by microdilution method; type: functional, organism-based
[22] = system: Staphylococcus epidermidis; assay: Antimicrobial activity against Staphylococcus epidermidis 9142 expressing surface protein Aap assessed as inhibition of biofilm formation at 12.5 ug/ml by spectrophotometry in presence of calcium ions; type: functional, organism-based
[23] = system: Staphylococcus epidermidis; assay: Antimicrobial activity against Staphylococcus epidermidis 5179 at 25 ug/ml under aerobic condition by microdilution method; type: functional, organism-based
[24] = system: Staphylococcus epidermidis; assay: Antimicrobial activity against Staphylococcus epidermidis 5179 under aerobic condition by microdilution method; type: functional, organism-based
[25] = system: Staphylococcus epidermidis; assay: Antimicrobial activity against Staphylococcus epidermidis 9142 expressing surface protein Aap assessed as inhibition of bacterial growth at 12.5 ug/ml after 16 hrs by spectrophotometry in presence of 10 uM Zn ions; type: functional, organism-based
[26] = system: Staphylococcus epidermidis; assay: Antimicrobial activity against Staphylococcus epidermidis 9142 expressing surface protein Aap assessed as inhibition of biofilm formation at 12.5 ug/ml by spectrophotometry in presence of Zn ions; type: functional, organism-based
[27] = system: Staphylococcus epidermidis; assay: Antimicrobial activity against biofilm-positive Staphylococcus epidermidis clinical isolate ICS2 assessed as inhibition of biofilm formation after 16 hrs by crystal violet staining; type: functional, organism-based
[28] = system: Staphylococcus epidermidis; assay: Antimicrobial activity against biofilm-positive Staphylococcus epidermidis clinical isolate ICS4 assessed as inhibition of biofilm formation after 16 hrs by crystal violet staining; type: functional, organism-based
[29] = system: Staphylococcus epidermidis; assay: Antimicrobial activity against Staphylococcus epidermidis 9142 expressing surface protein Aap assessed as inhibition of bacterial growth at 12.5 ug/ml by spectrophotometry in presence of 10 uM Zn ions; type: functional, organism-based
[30] = system: Staphylococcus epidermidis; assay: Antimicrobial activity against Staphylococcus epidermidis 9142 expressing surface protein Aap assessed as inhibition of biofilm formation at 12.5 ug/ml by spectrophotometry in presence of magnesium ions; type: functional, organism-based
[31] = system: Staphylococcus epidermidis; assay: Antimicrobial activity against Staphylococcus epidermidis 9142 expressing surface protein Aap assessed as inhibition of biofilm formation at 12.5 ug/ml by spectrophotometry in presence of EDTA; type: functional, organism-based
[32] = system: Staphylococcus epidermidis; assay: Antimicrobial activity against biofilm-positive Staphylococcus epidermidis clinical isolate ICS5 assessed as inhibition of biofilm formation after 16 hrs by crystal violet staining; type: functional, organism-based
Staphylococcus hominis = assay: Antimicrobial activity against Staphylococcus hominis F13532 assessed as inhibition of biofilm formation after 24 hrs by microdilution method; type: functional; settings: F13532, 24 h
[33] = system: Staphylococcus epidermidis; assay: Antimicrobial activity against Staphylococcus epidermidis 9142 assessed as inhibition of bacterial attachment to plastics at 15 ug/ml under static condition for 3 hrs by microscopic analysis; type: functional, organism-based
[34] = system: Staphylococcus epidermidis; assay: as §1, with “Aap assessed as inhibition of biofilm formation after 16 hrs” for “Aap”, “crystal violet staining” for “microdilution method”; type: functional, organism-based
[35] = system: Staphylococcus epidermidis; assay: Antimicrobial activity against Staphylococcus epidermidis 9142 assessed as inhibition of bacterial accumulation on catheters treated for 12 hrs post biofilm formation measured after 24 hrs by crystal voilet staining; type: functional, organism-based
[36] = system: Staphylococcus epidermidis; assay: Antimicrobial activity against Staphylococcus epidermidis 9142 assessed as inhibition of bacterial primary attachment to plastics at 15 ug/ml under shaking condition for 3 hrs by microscopic analysis; type: functional, organism-based
[37] = system: Staphylococcus epidermidis; assay: Antimicrobial activity against biofilm-positive Staphylococcus epidermidis clinical isolate ICS4 by microdilution method; type: functional, organism-based
[38] = system: Staphylococcus epidermidis; assay: Antimicrobial activity against biofilm-positive Staphylococcus epidermidis clinical isolate ICS2 by microdilution method; type: functional, organism-based
[39] = system: Staphylococcus epidermidis; assay: Antimicrobial activity against Staphylococcus epidermidis 9142 at 1 to 5 ug/ml by microplate assay; type: functional, organism-based
[40] = system: Staphylococcus epidermidis; assay: Antimicrobial activity against biofilm-positive Staphylococcus epidermidis clinical isolate ICS3 assessed as inhibition of biofilm formation after 16 hrs by crystal violet staining; type: functional, organism-based
[41] = system: Staphylococcus epidermidis; assay: Antimicrobial activity against Staphylococcus epidermidis 9142 assessed as inhibition of bacterial accumulation on catheters after 24 hrs by catheter adherence model; type: functional, organism-based
[42] = system: Staphylococcus epidermidis; assay: Antimicrobial activity against Staphylococcus epidermidis 9142 at 25 ug/ml under aerobic condition by microdilution method; type: functional, organism-based
[43] = system: Staphylococcus epidermidis; assay: Antimicrobial activity against Staphylococcus epidermidis 9142 under aerobic condition by microdilution method; type: functional, organism-based
[44] = system: Staphylococcus epidermidis; assay: Antimicrobial activity against Staphylococcus epidermidis 9142 assessed as inhibition of bacterial attachment to plastics at 10 ug/ml under static condition for 3 hrs by microscopic analysis; type: functional, organism-based
[45] = system: Staphylococcus epidermidis; assay: Antimicrobial activity against Staphylococcus epidermidis 9142 by microdilution method; type: functional
[46] = system: Staphylococcus epidermidis; assay: Antimicrobial activity against Staphylococcus epidermidis 9142 assessed as inhibition of bacterial attachment to plastics at 15 ug/ml under static condition for 3 hrs by microscopic analysis in presence of 10 uM Zn ions; type: functional, organism-based
[47] = system: Staphylococcus epidermidis; assay: Antimicrobial activity against Staphylococcus epidermidis 9142 assessed as growth inhibition at 8 ug/ml by microdilution method; type: functional, organism-based
[48] = system: Staphylococcus epidermidis; assay: Antimicrobial activity against biofilm-positive Staphylococcus epidermidis clinical isolate ICS3 by microdilution method; type: functional, organism-based
[49] = system: Staphylococcus epidermidis; assay: Antimicrobial activity against biofilm-positive Staphylococcus epidermidis clinical isolate ICS1 by microdilution method; type: functional, organism-based
[50] = Plasma protein binding in healthy volunteers at […], po administered as single dose; type: ADME, organism-based; design: route oral; settings: human, read-out: PPB (converted)

Cl.NCCOc1ccccc1C(=O)Nc1ncc([N+](=O)[O-])s1
0.4 mg/mL: solubility [1]

CC(=O)Oc1ccccc1C(=O)Nc1ncc([N+](=O)[O-])s1 [NITAZOXANIDE]
inactive: Activity [25] | Activity [26] | Activity [31] | Activity [35]
1 mg/L: IC50 [4] | IC50 [19] | IC50 [37] | IC50 [38] | IC50 [48] | IC50 [49]
8 mg/L: MIC [11] | MIC [15] | MIC [45]
16 mg/L: MIC [4] | MIC [17] | MIC [19] | MIC [37] | MIC [38] | MIC [48] | MIC [49]
active: Activity [2] | inhibition [3] | Activity [5] | Activity [6] | Activity [7] | Activity [8] | Activity [9] | Activity [10] Dose-dependent effect | Activity [12] Dose-dependent effect | Activity [14] | Activity [16] Dose-dependent effect | Activity [18] | Activity [20] | Activity [21] | Activity [22] | Activity [23] | Activity [24] Dose-dependent effect | inhibition [27] | inhibition [28] | Activity [29] | Activity [30] | inhibition [32] | Activity [33] | inhibition [34] | Activity [36] | Activity [39] | inhibition [40] | Activity [41] Dose-dependent effect | Activity [42] | Activity [43] Dose-dependent effect | Activity [44] | Activity [46] | Activity [47]
> 32 mg/L: MIC [13] | MIC (Staphylococcus hominis)

O=C(Nc1ncc([N+](=O)[O-])s1)c1ccccc1O [TIZOXANIDE]
0.025: fraction unbound [50]
active: Activity [12] Dose-dependent effect | Activity [21] | Activity [23] | Activity [24] Dose-dependent effect | Activity [39] | Activity [42] | Activity [43] Dose-dependent effect
8 mg/L: MIC [11] | MIC [15] | MIC [45]
